Measured values: ChEMBL document CHEMBL5465560, “Selectivity Literature for EUbOPEN Chemogenomic Library” (2024)
Values belong to the molecule of their own block, whether it stands above or below them.

Experiments:
[1] = target: Microtubule-associated serine/threonine-protein kinase 1 (Homo sapiens) (UniProt Q9Y2H9); conditions: at 10 µM
[2] = target: Tyrosine-protein kinase ABL1 (Homo sapiens, UniProt P00519); assay: Selectivity interaction (Kinase panel (Invitrogen)) EUB0000639a ABL1; conditions: at 200 nM
[3] = target: T1, MAP/microtubule affinity-regulating kinase 4 (Homo sapiens) (UniProt Q96L34); assay: Selectivity interaction (ActivX KiNativ screen (kinase selectivity in THP-1 cell lysates)) EUB0000639a MARK4; type: subcellular; conditions: lysate, at 0.01 µM
T1 sequence (whole entry): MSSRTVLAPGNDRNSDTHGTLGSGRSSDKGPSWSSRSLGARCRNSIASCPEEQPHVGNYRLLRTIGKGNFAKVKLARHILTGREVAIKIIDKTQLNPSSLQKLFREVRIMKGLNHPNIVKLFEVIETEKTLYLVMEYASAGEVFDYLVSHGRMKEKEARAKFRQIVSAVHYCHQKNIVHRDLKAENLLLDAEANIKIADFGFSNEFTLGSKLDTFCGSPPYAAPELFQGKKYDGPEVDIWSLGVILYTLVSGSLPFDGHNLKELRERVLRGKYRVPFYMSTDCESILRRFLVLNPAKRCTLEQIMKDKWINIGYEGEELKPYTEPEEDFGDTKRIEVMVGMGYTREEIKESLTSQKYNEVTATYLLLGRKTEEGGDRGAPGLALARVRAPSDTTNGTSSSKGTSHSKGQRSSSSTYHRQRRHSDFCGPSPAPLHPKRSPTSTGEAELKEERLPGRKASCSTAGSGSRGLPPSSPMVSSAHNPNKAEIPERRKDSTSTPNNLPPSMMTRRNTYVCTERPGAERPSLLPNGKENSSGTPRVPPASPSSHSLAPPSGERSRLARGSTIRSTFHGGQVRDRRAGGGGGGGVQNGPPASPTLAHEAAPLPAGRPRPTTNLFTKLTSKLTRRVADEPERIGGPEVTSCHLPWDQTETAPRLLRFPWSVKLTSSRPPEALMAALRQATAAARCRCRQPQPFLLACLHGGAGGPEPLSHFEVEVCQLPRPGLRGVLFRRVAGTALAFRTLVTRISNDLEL

[4] = target: T2, Tyrosine-protein kinase TXK (Homo sapiens) (UniProt P42681); assay: Selectivity interaction (Kinase panel (Invitrogen)) EUB0000639a TXK; conditions: at 200 nM
T2 sequence (whole entry): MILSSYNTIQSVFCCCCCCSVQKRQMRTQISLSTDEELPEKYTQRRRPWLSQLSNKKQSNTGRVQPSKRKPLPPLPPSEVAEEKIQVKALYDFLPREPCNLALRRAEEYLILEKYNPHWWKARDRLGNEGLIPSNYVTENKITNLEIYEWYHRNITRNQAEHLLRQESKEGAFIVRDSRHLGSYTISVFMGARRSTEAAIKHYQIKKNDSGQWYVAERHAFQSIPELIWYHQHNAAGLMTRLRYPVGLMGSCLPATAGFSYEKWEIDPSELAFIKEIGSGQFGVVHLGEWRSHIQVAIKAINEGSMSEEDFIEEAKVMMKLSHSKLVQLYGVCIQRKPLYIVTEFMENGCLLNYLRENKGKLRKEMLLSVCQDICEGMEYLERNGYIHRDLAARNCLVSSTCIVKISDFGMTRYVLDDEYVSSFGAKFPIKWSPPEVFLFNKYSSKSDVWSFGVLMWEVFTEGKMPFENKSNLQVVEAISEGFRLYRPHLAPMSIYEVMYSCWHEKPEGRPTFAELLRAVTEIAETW

[5] = target: T3, Serine/threonine-protein kinase STK11 (Homo sapiens) (UniProt Q15831); conditions: at 10 µM
T3 sequence (whole entry): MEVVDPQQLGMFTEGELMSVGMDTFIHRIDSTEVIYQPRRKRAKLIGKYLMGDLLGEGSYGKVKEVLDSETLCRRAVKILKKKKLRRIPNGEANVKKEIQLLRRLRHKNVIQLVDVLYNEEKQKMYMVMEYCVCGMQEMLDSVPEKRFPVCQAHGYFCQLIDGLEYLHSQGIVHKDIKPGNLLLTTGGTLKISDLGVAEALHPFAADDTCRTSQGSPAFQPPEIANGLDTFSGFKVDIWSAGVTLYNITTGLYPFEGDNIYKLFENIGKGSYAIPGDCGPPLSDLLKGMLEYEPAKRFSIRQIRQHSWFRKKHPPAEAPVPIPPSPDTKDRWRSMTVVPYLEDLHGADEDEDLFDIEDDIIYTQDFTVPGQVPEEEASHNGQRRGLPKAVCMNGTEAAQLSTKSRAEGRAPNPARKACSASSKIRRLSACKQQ

[6] = target: Serine/threonine-protein kinase 24 (Homo sapiens) (UniProt Q9Y6E0); assay: Selectivity interaction (KinomeScan (DiscoverX)) EUB0000666a STK24; conditions: at 10 µM
Sequence of Serine/threonine-protein kinase 24 (Homo sapiens) (Q9Y6E0 whole entry, looked up): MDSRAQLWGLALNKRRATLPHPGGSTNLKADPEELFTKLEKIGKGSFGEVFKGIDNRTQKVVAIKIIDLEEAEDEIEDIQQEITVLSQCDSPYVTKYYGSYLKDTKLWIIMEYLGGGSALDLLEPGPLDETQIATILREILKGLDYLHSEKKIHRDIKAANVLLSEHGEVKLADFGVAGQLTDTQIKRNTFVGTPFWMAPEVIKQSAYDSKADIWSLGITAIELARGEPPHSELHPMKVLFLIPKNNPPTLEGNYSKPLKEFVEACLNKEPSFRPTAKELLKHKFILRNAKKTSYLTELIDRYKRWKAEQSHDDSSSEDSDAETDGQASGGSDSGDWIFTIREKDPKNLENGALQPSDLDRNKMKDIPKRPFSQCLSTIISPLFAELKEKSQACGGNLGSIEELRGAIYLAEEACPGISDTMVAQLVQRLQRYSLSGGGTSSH

Sequence of Tyrosine-protein kinase ABL1 (P00519 whole entry): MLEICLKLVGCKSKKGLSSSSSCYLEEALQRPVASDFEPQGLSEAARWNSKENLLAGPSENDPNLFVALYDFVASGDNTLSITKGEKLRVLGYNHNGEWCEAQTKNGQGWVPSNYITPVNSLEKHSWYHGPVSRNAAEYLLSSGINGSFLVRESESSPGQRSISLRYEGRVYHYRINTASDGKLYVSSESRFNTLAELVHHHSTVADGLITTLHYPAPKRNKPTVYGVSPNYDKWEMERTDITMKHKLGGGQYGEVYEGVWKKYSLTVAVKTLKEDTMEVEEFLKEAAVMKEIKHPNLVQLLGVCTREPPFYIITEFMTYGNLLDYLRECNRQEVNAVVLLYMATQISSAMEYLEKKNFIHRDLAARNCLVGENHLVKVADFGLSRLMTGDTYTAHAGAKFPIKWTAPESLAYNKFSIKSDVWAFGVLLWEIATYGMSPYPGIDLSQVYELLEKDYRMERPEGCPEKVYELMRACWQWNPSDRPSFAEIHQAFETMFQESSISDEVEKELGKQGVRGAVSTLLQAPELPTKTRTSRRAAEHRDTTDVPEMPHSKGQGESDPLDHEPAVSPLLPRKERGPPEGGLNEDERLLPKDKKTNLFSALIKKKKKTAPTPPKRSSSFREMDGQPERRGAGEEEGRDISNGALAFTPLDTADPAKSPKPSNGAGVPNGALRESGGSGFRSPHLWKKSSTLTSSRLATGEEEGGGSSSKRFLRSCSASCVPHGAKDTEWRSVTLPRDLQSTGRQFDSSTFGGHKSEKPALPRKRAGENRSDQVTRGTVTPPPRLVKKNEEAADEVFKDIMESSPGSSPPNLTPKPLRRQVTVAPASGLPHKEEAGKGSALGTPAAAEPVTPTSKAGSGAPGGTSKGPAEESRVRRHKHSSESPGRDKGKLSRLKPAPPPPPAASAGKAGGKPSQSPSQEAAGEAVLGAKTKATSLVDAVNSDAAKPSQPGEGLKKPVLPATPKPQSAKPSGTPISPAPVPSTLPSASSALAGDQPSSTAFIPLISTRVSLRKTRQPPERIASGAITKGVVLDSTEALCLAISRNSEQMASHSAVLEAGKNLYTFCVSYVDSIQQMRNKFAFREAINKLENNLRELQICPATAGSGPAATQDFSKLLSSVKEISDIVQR
Sequence of Microtubule-associated serine/threonine-protein kinase 1 (Homo sapiens) (Q9Y2H9 whole entry, looked up): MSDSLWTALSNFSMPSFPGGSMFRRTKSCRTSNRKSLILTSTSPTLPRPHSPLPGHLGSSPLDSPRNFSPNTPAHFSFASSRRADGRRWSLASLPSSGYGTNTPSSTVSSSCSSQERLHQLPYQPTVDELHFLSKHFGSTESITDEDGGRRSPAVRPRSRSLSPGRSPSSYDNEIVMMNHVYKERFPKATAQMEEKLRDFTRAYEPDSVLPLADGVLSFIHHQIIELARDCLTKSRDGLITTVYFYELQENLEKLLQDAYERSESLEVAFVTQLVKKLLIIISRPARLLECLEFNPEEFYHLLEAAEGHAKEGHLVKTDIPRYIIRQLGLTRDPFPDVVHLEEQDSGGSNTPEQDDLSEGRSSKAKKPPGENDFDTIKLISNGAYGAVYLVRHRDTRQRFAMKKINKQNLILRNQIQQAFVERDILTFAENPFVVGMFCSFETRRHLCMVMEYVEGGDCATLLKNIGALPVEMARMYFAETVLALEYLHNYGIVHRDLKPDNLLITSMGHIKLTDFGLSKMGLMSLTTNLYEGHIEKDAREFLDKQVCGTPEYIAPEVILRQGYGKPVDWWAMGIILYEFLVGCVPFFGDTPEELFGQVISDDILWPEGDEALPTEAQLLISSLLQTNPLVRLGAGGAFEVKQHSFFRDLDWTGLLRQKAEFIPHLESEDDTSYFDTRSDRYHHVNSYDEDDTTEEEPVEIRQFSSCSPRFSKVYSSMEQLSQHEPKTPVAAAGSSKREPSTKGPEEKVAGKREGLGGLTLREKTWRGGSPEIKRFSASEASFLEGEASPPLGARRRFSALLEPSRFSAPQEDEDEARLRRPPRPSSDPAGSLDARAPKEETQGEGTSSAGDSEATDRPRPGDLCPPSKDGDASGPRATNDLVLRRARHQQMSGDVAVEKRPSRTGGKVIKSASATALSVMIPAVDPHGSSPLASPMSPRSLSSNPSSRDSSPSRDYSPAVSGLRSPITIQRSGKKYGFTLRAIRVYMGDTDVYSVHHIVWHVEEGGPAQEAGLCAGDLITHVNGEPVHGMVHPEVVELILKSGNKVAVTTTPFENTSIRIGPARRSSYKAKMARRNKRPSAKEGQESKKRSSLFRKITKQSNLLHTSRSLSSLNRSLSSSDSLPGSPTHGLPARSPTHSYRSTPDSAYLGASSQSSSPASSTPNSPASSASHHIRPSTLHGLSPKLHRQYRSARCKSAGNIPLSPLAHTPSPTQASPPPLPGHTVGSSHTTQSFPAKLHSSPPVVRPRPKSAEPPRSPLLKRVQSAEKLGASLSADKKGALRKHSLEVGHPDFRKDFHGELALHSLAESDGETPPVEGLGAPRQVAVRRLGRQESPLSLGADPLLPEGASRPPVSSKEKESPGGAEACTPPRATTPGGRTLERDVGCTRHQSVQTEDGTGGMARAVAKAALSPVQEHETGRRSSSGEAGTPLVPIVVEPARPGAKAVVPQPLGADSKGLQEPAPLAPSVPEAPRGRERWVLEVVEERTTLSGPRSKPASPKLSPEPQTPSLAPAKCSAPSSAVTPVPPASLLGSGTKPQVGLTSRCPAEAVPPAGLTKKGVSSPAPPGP

Compound: Cc1cc([C@@H](C)Nc2ccccc2C(=O)O)c2nc(N3CCOCC3)cc(=O)n2c1 [AZD-6482]
% of control [1]: 100%

% of inhibition [2]: 2.34% | % of inhibition [3]: 9.6% | % of inhibition [4]: 9.25%
Compound: CC[C@@H]1[C@H](F)C(=O)N[C@@H]1COc1nccc2cc(C(N)=O)c(OC)cc12 [ZIMLOVISERTIB]

% of control [5]: 100%
Compound: CCN(CC)CCCCNc1ncc2cc(-c3cc(OC)cc(OC)c3)c(NC(=O)NC(C)(C)C)nc2n1

Compound: O=C(NOC[C@H](O)CO)c1ccc(F)c(F)c1Nc1ccc(I)cc1F
% of control [6]: 88%
